Reference: patent publication US9994901B2, “Pro-inflammatory mediators in diagnosis and treatment of chronic obstructive pulmonary disease” (The Regents of the University of Colorado, priority 2012, dated 2018)

Columns and labels:
Arhgef1-/- mice = Arhgef1-/- mice treated with TP antagonist, RT-PCR of BAL cells and lung tissue (FIGS. 9, 10); format: in vivo, mouse; conditions: time course, single dose
Source text: Arhgef1 is an intracellular signaling molecule which has been shown specifically to modulate signaling from Gα12/13 coupled receptors. […] We have identified that thromboxane receptor signaling is required for fibronectin induced MMP-9 expression in wild type and Arhgef1-deficient cells. Treatment of Arhgef1-deficient mice with a thromboxane receptor antagonist results in a consistent and reproducible reduction in MMP-9 expression and activity in the pulmonary compartment. […] Importantly treatment with a thromboxane receptor antagonist decreased expression of all of these mediators in the Arhgef1-deficient lungs. These findings were unexpected.
(§1) Treatment with a thromboxane receptor antagonist decreases the expression of pro-inflammatory mediators.

Arhgef1-/- animals = assay: Arhgef1-/- animals, inhalation of PTA2, BAL supernatant ELISA (FIG. 11); format: in vivo, mouse; conditions: ELISA 24 hr after a 1 hr inhalation exposure, vs vehicle
Experimental: FIG. 11. Panels A and B graphically depict the measurement of BAL pro-inflammatory mediators by ELISA in Arhgef1 deficient animals treated by inhalation of PTA2 or vehicle. […] Pro-inflammatory mediators were measured in BAL supernatant 24 hr after a 1 hr inhalation exposure to either vehicle (black bars on left sides, n=16) or PTA2 (grey bars on right sides, n=3).
as §1

COPD patient monocytes = assay: COPD patient peripheral blood monocytes cultured on fibronectin, IL-8 production (FIG. 15); format: cell-based, human
Experimental: FIG. 15. […] Graphically depicted are the results from treating human monocytes cultured on fibronectin with two different TP antagonist. […] Some fibronectin cultured cells were treated with the thromboxane receptor antagonist Pinane Thromboxane (PTA2). For PTA2 treatment, the concentration utilized is 7.5 μM.
Some fibronectin cultured cells were treated with the thromboxane receptor antagonist Pinane Thromboxane (PTA2). For PTA2 treatment, the concentration used was 7.5 μM.

human PB monocytes = assay: Human PB monocytes cultured on fibronectin 48 hrs, conditioned media ELISA (FIG. 3); format: cell-based; conditions: human PB monocytes (n=6) on fibronectin 48 hrs, PTA2 added; ELISA of conditioned media
Experimental: FIG. 3. […] Fibronectin (FN) induces pro-inflammatory mediator in human PB monocytes. Monocytes (n=6) were cultured on plastic (ctl) or fibronectin (FN) for 48 hrs. Pinane thromboxane A2 (PTA2), a thromboxane receptor antagonist, was added to some FN cultures. Conditioned media was analyzed for indicated mediators by ELISA. *P<0.05 Students two tailed t-test compared to plastic.
In particular, murine macrophages promote inflammation via a signaling pathway that depends on thromboxane receptor signaling and that is repressed by ARHGEF1. Monocytes from a healthy individual similarly promote inflammation, as indicated by MMP-9, TNFα and MCP-1 production, and this is inhibited by a (commercially available research grade) thromboxane receptor antagonist (FIG. 3).
To facilitate this analysis, we used an ELISA-based platform developed by Meso Scale Discovery (MSD), Gaithersburg, Md. USA (www.mesoscale.com) that allows a multiplex format for the analysis of pro-inflammatory cytokines, chemokines, and matrix metalloproteases. This platform relies on proprietary detection and patterned arrays in a 96-well format and that has an extremely large dynamic range enabling detection of these pro-inflammatory mediators from both biological samples (BAL fluid, serum, etc.) and tissue culture supernatant. An MSD plate reader (Sector Imager 2400) was used.

human monocytes = assay: Human monocytes cultured on fibronectin, IL-6 by ELISA (FIG. 12); format: cell-based; conditions: FN+20 mM aspirin vs FN
Source text: Experiments summarized in the top of FIG. 12 show culture of human monocytes on fibronectin (FN) induces several pro-inflammatory mediators as measured by ELISA.

## Cc1c(CC(C)(C)C(=O)O)n(Cc2ccc(Cl)cc2)c2ccc(F)cc12 [L655, 1-[(4-Chlorophenyl)methyl]-5-fluoro-α,α,3-trimethyl-1H-indole-2-propanoic acid]
Arhgef1-/- mice
  expression of several pro-inflammatory mediators, RT-PCR of BAL cells: decreases expression of several pro-inflammatory mediators
  expression of several pro-inflammatory mediators, RT-PCR of lung tissue: decreases expression of several pro-inflammatory mediators

## CCCCC[C@@H](O)/C=C/[C@H]1C[C@H]2C[C@@H]([C@@H]1C/C=C\CCCC(=O)O)C2(C)C (relative stereo) [PTA2, (1S-(1alpha,2beta(Z),3alpha(1E,3S*),5alpha))-7-(3-(3-Hydroxy-1-octenyl)-6,6-dimethylbicyclo(3.1.1)hept-2-yl)-5-heptenoic acid]
Arhgef1-/- animals
  production of several pro-inflammatory mediators in BAL supernatant: reduces production of several pro-inflammatory mediators
COPD patient monocytes; monocytes from 3 COPD patients on fibronectin, PTA2 7.5 μM
  IL-8 production: reduce IL-8 production
Human PB monocytes
  FN induced MCP-1: dependent on TP signaling
  FN induced TNF-: dependent on TP signaling

## CC(=O)Oc1ccccc1C(=O)O [aspirin]
Human monocytes
  FN induced IL-6 production: reduced

## CC1=C(C)C(=O)C(C(CCCCCC(=O)O)c2ccccc2)=C(C)C1=O (centres unmarked) [Seratrodast, 7-phenyl-7-(2,4,5-trimethyl-3,6-dioxocyclohexa-1,4-dien-1-yl)heptanoic acid]
COPD patient monocytes; monocytes from a COPD patient on fibronectin, Seratrodast 0.448, 2.24, 11.2 μM
  IL-8 production: reduce IL-8 production
